Reference: patent US12594292B2, “Antiviral prodrugs, intermediate-and long-acting formulations and methods” (priority 2022, dated 2026)
Read-outs that look alike come from different tables or passages of the source.

How the values were obtained:
[1] = system: SARS-CoV-2 isolate USA-WA1/2020; assay: SARS-CoV-2 infection in Vero E6 cells, qRT-PCR of Spike RNA (Example 3); format: cell-based
Huh7.5 cells [2] = assay: Cell viability assay CellTiter-Glo, Huh7.5 cells (Example 7)
VERO E6 cells [3] = assay: Cellular cytotoxicity in Vero E6 cells, MTT assay (Example 2); format: cell-based
Procedure: (§1) Ten thousand Vero E6 cells were seeded in 100 microliters of culture medium in 96 well plates. The following day serial two-fold dilutions of antiviral compounds or the DMSO-containing vehicle were added to each well. The USA WA-01 strain of SARS CoV-2 was added to each well at a multiplicity of infection of 0.1 thirty minutes later. Cells were incubated for 48 hours, washed twice in PBS and lysed with TRIzol. RNA was extracted using Directzol micro RNA columns. RNA was made into cDNA and assayed for the SARS CoV-2 spike protein and for a housekeeping gene (RPLPO) RNA by qPCR. Data represents the average of duplicate wells. Cellular cytotoxicity was also measured in VERO E6 cells. […] Cytotoxicity (CC50) was assessed using a commercially available MTT assay.

VERO E6 cells [4] = assay: Cell viability assay CellTiter-Glo, Vero E6 cells (Example 7)
HCoV-229E = format: cell-based, human Coronavirus 229E
VERO E6 cells [5] = assay: CellTiter-Glo luminescent cell viability assay, Vero E6 (Example 3); format: cell-based
Procedure: CellTiter-glo luminescent cell viability assay: Approximately 10^4 Vero E6 cells per well were seeded in opaque walled 96 well cell culture plates and incubated overnight. Compounds or controls were added at the indicated concentrations. […] Viability was calculated compared to untreated controls and CC50 values were calculated using Prism 8.
Determination of Cytotoxicity: The 50% cytotoxic concentrations (CC50) were determined with Cell Titer Glo (Cat. #G7570, Promega, Madison, WI) according to the manufacturer's instructions. The calculated CC50 values are shown in the foregoing table.
Relative viability was measured by CellTiter-Glo luminescent cell viability assay, as depicted at FIG. 2.

[6] = system: USA WA-01 strain of SARS CoV-2; assay: Anti-coronavirus activity in Vero E6 cells, qPCR of spike RNA (Example 2); format: cell-based
Procedure: as §1

[7] = system: SARS-CoV-2 isolate USA-WA1/2020; assay: SARS-CoV-2 infection in Huh7.5 cells, qRT-PCR (Example 7); format: cell-based
Huh7.5 cells [8] = assay: Cytotoxicity in Huh7.5 cells, nuclei count (Example 6); format: cell-based, human
[9] = system: SARS-CoV-2 isolate USA-WA1/2020; assay: SARS-CoV-2 infection in Vero E6 cells, qRT-PCR (Example 7); format: cell-based
[10] = system: SARS-CoV-2 isolate USA-WA1/2020; assay: SARS-CoV-2 infection in PSC-human lung cells, qRT-PCR (Example 7); format: cell-based; details: PSC-human lung cells, MOI 0.01, 48 hours
SARS-CoV-2 [11] = assay: SARS-CoV-2 infection assay in Huh7.5 cells, nucleocapsid immunofluorescence (Example 6); format: cell-based; details: MOI 0.1, 48 hours
SRV A2 strain of RSV = assay: RSV infection in Hep-2 cells, CPE reduction; format: cell-based, respiratory syncytial virus; details: RSV A2 in Hep-2 cells, 72 to 96 hours
Procedure: Methods: The SRV A2 strain of RSV was obtained from the ATCC. Ten thousand Hep-2 cells were seeded into each well of a 96-well plate in EMEM with 10% fetal bovine serum and 1% penicillin and streptomycin. Each well was inoculated with 100 TCID50 of virus. Two hours later wells were washed once with medium and serial four-fold dilutions of candidate antiviral drugs were added.

Hep-2 cells = assay: Cell viability assay for the RSV table (CC50); format: cell-based; details: Hep-2 cells; read-out: CC50
Calu-3 cells = assay: Cytotoxicity in Calu-3 cells, nuclei count or CellTiter-Glo (Example 6); details: for select compounds up to 100 μM by CellTiter-Glo
Procedure: After which an equal volume of CellTiter-Glo reagent (Cat. #G7570, Promega, Madison, WI) was added, mixed and luminescence recorded on a Veritas Microplate Luminometer (Turner BioSystems) according to manufacturer recommendations.

TMPRSS2-Vero cells = assay: Cytotoxicity in TMPRSS2-Vero cells, nuclei count (Example 6); format: cell-based; details: TMPRSS2-Vero cells; read-out: CC50
SARS-CoV-2 [12] = assay: SARS-CoV-2 infection assay in TMPRSS2-Vero cells, nucleocapsid immunofluorescence (Example 6); format: cell-based; details: MOI 0.01, 32 hours
SARS-CoV-2 [13] = assay: SARS-CoV-2 infection assay in Calu-3 cells, nucleocapsid immunofluorescence (Example 6); details: MOI 0.01, 44 hour
[14] = Cytotoxicity (CC50) in human PBMCs; format: cell-based; details: human PBMCs
HIV-1 [15] = details: for EC50: HIV infected human PBMCs
Procedure: (§2) Antiviral activities were determined in HIV infected human PBMCs.

HIV-1 [16] = assay: microbe, parasite or virus in culture; details: Human immunodeficiency virus 1, PBMC
Procedure: as §2

human PBMCs = assay: Cytotoxicity (CC50) in human PBMCs; format: cell-based; details: variation of the diester substituent of ODE-TFV; read-out: CC50
HFF cells = assay: Persistence of TFVpp in HFF cells after a 3 day exposure; details: HFF cells, 1 micromolar drug for 3 days
Excerpt: HFF cells were exposed to 1 micromolar drug for 3 days. At days 0, 1, 2, 4, 7, 14, 21, and 28, cells were trypsinized, counted, and processed for LC/MS measurement of TFVpp. Data were expressed at ftg/cell. nm=not meaningful; ftg—gemtogram.

[17] = Vero E6 cells, MOI 0.01, 48 hours, mean±SD
[18] = Vero E6 cells, MOI 0.1, 48 hours
[19] = Huh7.5 cells, MOI 0.01, 48 hours, qRT-PCR (Example 7)
[20] = Vero E6 cells, MOI 0.01, 48 hours
[21] = variation of the diester substituent of ODE-TFV

For `CCCCCCCCCCCCCCCCOCCCOP(=O)(O)OC[C@H]1O[C@@](C#N)(c2ccc3c(N)ncnn23)[C@H](O)[C@@H]1O` [Compound 4b, 3-(Hexadecyloxy)propyl-phospho-RVn], the Selectivity ([1]; CC50/EC50, Vero E6) was 52, the EC50 [1, 17] was 960 ± 170 nM and the EC90 [1, 17] was 2100 ± 780 nM. For the same molecule, the CC50 (Huh7.5 cells [2]) was over 100 µM, the CC50 (VERO E6 cells [3]) was 21 µM and the CC50 (VERO E6 cells [4]) was over 100 µM. It also gave a CC50 (MRC-5 cells) of 32.1 ± 17.9 µM, an EC50 (HCoV-229E) of 3020 ± 360 nM and an EC90 (HCoV-229E) of 6600 ± 1140 nM. For the same molecule, the CC50 (VERO E6 cells [5]) was 51 µM, the “Selectivity Index” value ([6]; CC50/EC50, Vero E6) was 25.0 and the “times more active than remdesivir” value ([6]; USA WA-1 strain, Vero E6 cells) was 3.3. For the same molecule, the EC50 [6, 18] was 840 nM, the EC90 [6, 18] was 1580 nM and the Selectivity ([7]; CC50/EC50, Huh7.5 cells) was over 526. For the same molecule, the EC50 [7, 19] was 190 nM, the EC90 [7, 19] was 400 nM and the EC50 ([7]; Huh7.5 cells, MOI 0.01, 48 hours, qRT-PCR (Example 7), listed as HDP-P-RVn) was 190 nM. It also gave a CC50 (Huh7.5 cells [8]) of over 20 µM, a Selectivity ([9]; CC50/EC50, Vero E6 cells) of over 158 and an EC50 [9, 20] of 630 nM. For the same molecule, the EC90 [9, 20] was 730 nM, the EC50 [10] was 350 nM and the EC90 [10] was 940 nM.

`CCCCCCCCCCCCCCCCOC[C@H](COP(=O)(O)OC[C@H]1O[C@@](C#N)(c2ccc3c(N)ncnn23)[C@H](O)[C@@H]1O)OCc1ccc(OC)c(F)c1` [Compound 15c, 1-O-Hexadecyl-2-O-(3-fluoro, 4-methoxybenzyl)-sn-glyceryl-phospho-RVn] gave an EC50 (SARS-CoV-2 [11]) of 49 nM, an EC90 (SARS-CoV-2 [11]) of 113 nM and a CC50 (MRC-5 cells) of over 50 µM. The EC50 (HCoV-229E) was 360 ± 54 nM, the EC90 (HCoV-229E) was 1120 ± 100 nM and the EC50 (SRV A2 strain of RSV) was 34 nM. The EC90 (SRV A2 strain of RSV) was 68 nM, the CC50 (Hep-2 cells) was 20.6 µM and the CC50 (Calu-3 cells) was 75.6 ± 3.96 µM. It also gave a CC50 (TMPRSS2-Vero cells) of over 20 µM, a CC50 (Huh7.5 cells [8]; Huh7.5 cells, read-out: CC50) of over 20 µM and an EC50 (SARS-CoV-2 [12]) of 397 nM. For the same molecule, the EC90 (SARS-CoV-2 [12]) was 869 nM, the EC50 (SARS-CoV-2 [13]) was 51 ± 6 nM and the EC90 (SARS-CoV-2 [13]) was 221 ± 58 nM.

`CCCCCCCCCCCCCCCCCCOC[C@H](COP(=O)(O)OC[C@H]1O[C@@](C#N)(c2ccc3c(N)ncnn23)[C@H](O)[C@@H]1O)OCc1ccc(OC)c(F)c1` [Compound 15j, 1-O-Octadecyl-2-O-(3-fluoro-4-methoxy-benzyl)-sn-glyceryl-phospho-RVn] showed an EC50 (SARS-CoV-2 [11]) of 56 nM, an EC90 (SARS-CoV-2 [11]) of 222 nM and a CC50 (MRC-5 cells) of over 50 µM. It also gave an EC50 (HCoV-229E) of 74 ± 10 nM, an EC90 (HCoV-229E) of 170 ± 14 nM and an EC50 (SRV A2 strain of RSV) of 10 nM. For the same molecule, the EC90 (SRV A2 strain of RSV) was 19 nM, the CC50 (Hep-2 cells) was 9.6 µM and the CC50 (Calu-3 cells) was 50.6 ± 5.42 µM. For the same molecule, the CC50 (TMPRSS2-Vero cells) was over 20 µM, the CC50 (Huh7.5 cells [8]; Huh7.5 cells, read-out: CC50) was over 20 µM and the EC50 (SARS-CoV-2 [12]) was 174 nM. For the same molecule, the EC90 (SARS-CoV-2 [12]) was 341 nM.

Molecule `CCCCCCCC/C=C\CCCCCCCCOC[C@H](COP(=O)(O)OC[C@H]1O[C@@](C#N)(c2ccc3c(N)ncnn23)[C@H](O)[C@@H]1O)OCc1ccc(OC)c(F)c1` [Compound 15m, 1-O-Oleyl-2-O-(3-fluoro, 4-methoxybenzyl)-sn-glyceryl-phospho-RVn] has an EC50 (SARS-CoV-2 [11]) of 54 nM, an EC90 (SARS-CoV-2 [11]) of 102 nM and a CC50 (MRC-5 cells) of over 50 µM. For the same molecule, the EC50 (HCoV-229E) was 60 ± 14 nM, the EC90 (HCoV-229E) was 110 ± 20 nM and the EC50 (SRV A2 strain of RSV) was 5 nM. The EC90 (SRV A2 strain of RSV) was 9.4 nM, the CC50 (Hep-2 cells) was 12.5 µM and the CC50 (Calu-3 cells) was 58.5 ± 6.28 µM. For the same molecule, the CC50 (TMPRSS2-Vero cells) was over 20 µM, the CC50 (Huh7.5 cells [8]; Huh7.5 cells, read-out: CC50) was over 20 µM and the EC50 (SARS-CoV-2 [12]) was 296 nM. It also gave an EC90 (SARS-CoV-2 [12]) of 524 nM.

`CCCCCCCCCCCCCCCCCCOCCOP(=O)(OCc1ccccc1)OC[C@H]1O[C@@H](n2cc(F)c(N)nc2=O)CS1` (stereo partly shown) [ODE-Bn-P-Emtricitabine, Octadecyloxyethyl benzyl-phospho-emtricitabine] gave a CC50 [14] of 54.7 ± 45.3 µM, a Selectivity Index (HIV-1 [15]; CC50/EC50) of 2989 and an EC50 (HIV-1 [16]) of 18.3 ± 8.7 nM.

`CCCCCCCCCCCCCCCCCCOCCOP(=O)(CO[C@H](C)Cn1cnc2c(N)ncnc21)OCc1ccccc1` (stereo partly shown) [ODE-Bn-TFV, Octadecyloxyethyl benzyl tenofovir] showed a CC50 [14] of 8.72 µM, a Selectivity Index (HIV-1 [15]; CC50/EC50) of 5130 and an EC50 (HIV-1 [16]) of 1.7 ± 1.5 nM.

For `CCCCCCCCCCCCCCCCCCOCCOP(=O)(CO[C@H](C)Cn1cnc2c(N)ncnc21)OC` (stereo partly shown) [ODE-Me-TFV], the CC50 (human PBMCs) was 2.98 µM, the “Selectivity Index” value (HIV-1 [15]; [21]) was 677 and the EC50 (HIV-1 [15]; [21]) was 5.2 nM. The “Cmax of TFVpp” value (HFF cells) was 9.3 ftg/cell, the “T1/2 of TFVpp” value (HFF cells) was 2.0 and the “T1/10 of TFVpp” value (HFF cells) was 11.3. For the same molecule, the “Tmax of TFVpp” value (HFF cells) was 0 days.

For `CCCCCCCCCCCCCCCCCCOCCOP(=O)(O)OC[C@H]1O[C@@H](n2cc(F)c(N)nc2=O)CS1` [ODE-P-Emtricitabine, Octadecyloxyethyl-phospho-emtricitabine], the CC50 [14] was 35.6 ± 12.9 µM, the Selectivity Index (HIV-1 [15]; CC50/EC50) was 3708 and the EC50 (HIV-1 [16]) was 9.6 ± 3.1 nM.

With `CCCCCCCCCCCCCCCCCCOCCOP(=O)(CO[C@H](C)Cn1cnc2c(N)ncnc21)Oc1ccccc1` (stereo partly shown) [ODE-Ph-TFV] the CC50 (human PBMCs) was 3.93 µM, the “Selectivity Index” value (HIV-1 [15]; [21]) was 1640 and the EC50 (HIV-1 [15]; [21]) was 2.4 nM. For the same molecule, the “Cmax of TFVpp” value (HFF cells) was 8.1 ftg/cell, the “T1/2 of TFVpp” value (HFF cells) was 3.0 and the “T1/10 of TFVpp” value (HFF cells) was 15.1. The “Tmax of TFVpp” value (HFF cells) was 1 days.

With `CCCCCCCC/C=C\CCCCCCCCOCCOP(=O)(O)CO[C@H](C)Cn1cnc2c(N)nc(N)nc21` [OLE-PMPDAP, Oleyloxyethyl 9-(R)-[(2-phosphonomethoxy)propyl]-2,6-diaminopurine] the CC50 [14] was 15 ± 12.3 µM, the Selectivity Index (HIV-1 [15]; CC50/EC50) was 150,000 and the EC50 (HIV-1 [16]) was 0.1 ± 0.03 nM.
